Assay results taken from ChEMBL document CHEMBL3436046, “Predictive model for L-type channel inhibition: multichannel block in QT prolongation risk assessment” (J Appl Toxicol, 2012).

Tests used:
[1] = molecular target: T1, Voltage-dependent L-type calcium channel subunit alpha-1C (Rattus norvegicus, UniProt P22002); assay: (§1) Inhibition of L-type calcium channel measured using whole-cell patch clamp in rat ventricular myocytes; type: functional, cell-based, Heart, Ventricular myocyte; parameters: ca sol conc 1 mM, temp 20-24 C
[2] = molecular target: T1, Voltage-dependent L-type calcium channel subunit alpha-1C; assay: as §1; type: functional, cell-based, Heart, Ventricular myocyte; parameters: ca sol conc 0 mM, temp room
[3] = molecular target: T2, Voltage-dependent L-type calcium channel subunit alpha-1C (Homo sapiens, UniProt Q13936); assay: (§2) Inhibition of L-type calcium channel measured using […] kidney cells heterologically expressing alpha-1C subunit; type: functional, cell-based, HEK293; parameters: ca sol conc 0 mM, temp 37 C
[4] = molecular target: T1, Voltage-dependent L-type calcium channel subunit alpha-1C; assay: as §1; type: functional, cell-based, Heart, Ventricular myocyte; parameters: ca sol conc 1 mM, temp 21-23 C
[5] = molecular target: T1, Voltage-dependent L-type calcium channel subunit alpha-1C; assay: as §1; type: functional, cell-based, Heart, Ventricular myocyte; parameters: ca sol conc 1 mM, temp 21-23 C; remark: listed apart in the source
[6] = molecular target: T3, Voltage-dependent L-type calcium channel subunit alpha-1C (Cavia porcellus, UniProt O35505); assay: (§3) Inhibition of L-type calcium channel measured using whole-cell patch clamp in guinea pig ventricular myocytes; type: functional, cell-based, Heart, Ventricular myocyte; parameters: ca sol conc 1 mM, temp 20 C
[7] = molecular target: T2, Voltage-dependent L-type calcium channel subunit alpha-1C; assay: as §2; type: functional, cell-based, HEK293; parameters: ca sol conc 0 mM, temp 20-25 C
[8] = molecular target: T1, Voltage-dependent L-type calcium channel subunit alpha-1C; assay: as §1; type: functional, cell-based, Heart, Ventricular myocyte; parameters: ca sol conc 1.8 mM, temp 22-24 C
[9] = molecular target: T3, Voltage-dependent L-type calcium channel subunit alpha-1C; assay: as §3; type: functional, cell-based, Heart, Ventricular myocyte; parameters: ca sol conc 2.5 mM, temp room
[10] = molecular target: T2, Voltage-dependent L-type calcium channel subunit alpha-1C; assay: as §2; type: functional, cell-based, HEK293; parameters: ca sol conc 0 mM, temp room
[11] = molecular target: T2, Voltage-dependent L-type calcium channel subunit alpha-1C; assay: as §2; type: functional, cell-based, HEK293; parameters: ca sol conc 0 mM, temp room; remark: listed apart in the source
[12] = molecular target: T3, Voltage-dependent L-type calcium channel subunit alpha-1C; assay: as §3; type: functional, cell-based, Heart, Ventricular myocyte; parameters: ca sol conc 2 mM, temp 22-26 C
[13] = molecular target: T3, Voltage-dependent L-type calcium channel subunit alpha-1C; assay: as §3; type: functional, cell-based, Heart, Ventricular myocyte; parameters: ca sol conc 1.8 mM, temp 36-37 C
[14] = molecular target: T2, Voltage-dependent L-type calcium channel subunit alpha-1C; assay: as §2; type: functional, cell-based, HEK293; parameters: ca sol conc 0 mM, temp 21-24 C
[15] = molecular target: T3, Voltage-dependent L-type calcium channel subunit alpha-1C; assay: as §3; type: functional, cell-based, Heart, Ventricular myocyte; parameters: ca sol conc 0 mM, temp 20-25 C
[16] = molecular target: T3, Voltage-dependent L-type calcium channel subunit alpha-1C; assay: as §3; type: functional, cell-based, Heart, Ventricular myocyte; parameters: ca sol conc None mM, temp 36 C
[17] = molecular target: T3, Voltage-dependent L-type calcium channel subunit alpha-1C; assay: as §3; type: functional, cell-based, Heart, Ventricular myocyte; parameters: ca sol conc 1.8 mM, temp 36 C
[18] = molecular target: T1, Voltage-dependent L-type calcium channel subunit alpha-1C; assay: as §1; type: functional, cell-based, Heart, Ventricular myocyte; parameters: ca sol conc 1 mM, temp 1 C
[19] = molecular target: T2, Voltage-dependent L-type calcium channel subunit alpha-1C; assay: as §2; type: functional, cell-based, HEK293; parameters: ca sol conc 10 mM, temp room
[20] = molecular target: T1, Voltage-dependent L-type calcium channel subunit alpha-1C; assay: as §1; type: functional, cell-based, Heart, Ventricular myocyte; parameters: ca sol conc 2 mM, temp 22-23 C
[21] = molecular target: T2, Voltage-dependent L-type calcium channel subunit alpha-1C; assay: as §2; type: functional, cell-based, HEK293; parameters: ca sol conc 0 mM, temp 21-24 C; remark: listed apart in the source
[22] = molecular target: T3, Voltage-dependent L-type calcium channel subunit alpha-1C; assay: as §3; type: functional, cell-based, Heart, Ventricular myocyte; parameters: ca sol conc 1.8 mM, temp room
[23] = molecular target: T1, Voltage-dependent L-type calcium channel subunit alpha-1C; assay: as §1; type: functional, cell-based, Heart, Ventricular myocyte; parameters: ca sol conc 1.8 mM, temp 21-23 C
[24] = molecular target: T3, Voltage-dependent L-type calcium channel subunit alpha-1C; assay: as §3; type: functional, cell-based, Heart, Ventricular myocyte; parameters: ca sol conc 1.8 mM, temp 20-25 C

T1 sequence (P22002 whole entry): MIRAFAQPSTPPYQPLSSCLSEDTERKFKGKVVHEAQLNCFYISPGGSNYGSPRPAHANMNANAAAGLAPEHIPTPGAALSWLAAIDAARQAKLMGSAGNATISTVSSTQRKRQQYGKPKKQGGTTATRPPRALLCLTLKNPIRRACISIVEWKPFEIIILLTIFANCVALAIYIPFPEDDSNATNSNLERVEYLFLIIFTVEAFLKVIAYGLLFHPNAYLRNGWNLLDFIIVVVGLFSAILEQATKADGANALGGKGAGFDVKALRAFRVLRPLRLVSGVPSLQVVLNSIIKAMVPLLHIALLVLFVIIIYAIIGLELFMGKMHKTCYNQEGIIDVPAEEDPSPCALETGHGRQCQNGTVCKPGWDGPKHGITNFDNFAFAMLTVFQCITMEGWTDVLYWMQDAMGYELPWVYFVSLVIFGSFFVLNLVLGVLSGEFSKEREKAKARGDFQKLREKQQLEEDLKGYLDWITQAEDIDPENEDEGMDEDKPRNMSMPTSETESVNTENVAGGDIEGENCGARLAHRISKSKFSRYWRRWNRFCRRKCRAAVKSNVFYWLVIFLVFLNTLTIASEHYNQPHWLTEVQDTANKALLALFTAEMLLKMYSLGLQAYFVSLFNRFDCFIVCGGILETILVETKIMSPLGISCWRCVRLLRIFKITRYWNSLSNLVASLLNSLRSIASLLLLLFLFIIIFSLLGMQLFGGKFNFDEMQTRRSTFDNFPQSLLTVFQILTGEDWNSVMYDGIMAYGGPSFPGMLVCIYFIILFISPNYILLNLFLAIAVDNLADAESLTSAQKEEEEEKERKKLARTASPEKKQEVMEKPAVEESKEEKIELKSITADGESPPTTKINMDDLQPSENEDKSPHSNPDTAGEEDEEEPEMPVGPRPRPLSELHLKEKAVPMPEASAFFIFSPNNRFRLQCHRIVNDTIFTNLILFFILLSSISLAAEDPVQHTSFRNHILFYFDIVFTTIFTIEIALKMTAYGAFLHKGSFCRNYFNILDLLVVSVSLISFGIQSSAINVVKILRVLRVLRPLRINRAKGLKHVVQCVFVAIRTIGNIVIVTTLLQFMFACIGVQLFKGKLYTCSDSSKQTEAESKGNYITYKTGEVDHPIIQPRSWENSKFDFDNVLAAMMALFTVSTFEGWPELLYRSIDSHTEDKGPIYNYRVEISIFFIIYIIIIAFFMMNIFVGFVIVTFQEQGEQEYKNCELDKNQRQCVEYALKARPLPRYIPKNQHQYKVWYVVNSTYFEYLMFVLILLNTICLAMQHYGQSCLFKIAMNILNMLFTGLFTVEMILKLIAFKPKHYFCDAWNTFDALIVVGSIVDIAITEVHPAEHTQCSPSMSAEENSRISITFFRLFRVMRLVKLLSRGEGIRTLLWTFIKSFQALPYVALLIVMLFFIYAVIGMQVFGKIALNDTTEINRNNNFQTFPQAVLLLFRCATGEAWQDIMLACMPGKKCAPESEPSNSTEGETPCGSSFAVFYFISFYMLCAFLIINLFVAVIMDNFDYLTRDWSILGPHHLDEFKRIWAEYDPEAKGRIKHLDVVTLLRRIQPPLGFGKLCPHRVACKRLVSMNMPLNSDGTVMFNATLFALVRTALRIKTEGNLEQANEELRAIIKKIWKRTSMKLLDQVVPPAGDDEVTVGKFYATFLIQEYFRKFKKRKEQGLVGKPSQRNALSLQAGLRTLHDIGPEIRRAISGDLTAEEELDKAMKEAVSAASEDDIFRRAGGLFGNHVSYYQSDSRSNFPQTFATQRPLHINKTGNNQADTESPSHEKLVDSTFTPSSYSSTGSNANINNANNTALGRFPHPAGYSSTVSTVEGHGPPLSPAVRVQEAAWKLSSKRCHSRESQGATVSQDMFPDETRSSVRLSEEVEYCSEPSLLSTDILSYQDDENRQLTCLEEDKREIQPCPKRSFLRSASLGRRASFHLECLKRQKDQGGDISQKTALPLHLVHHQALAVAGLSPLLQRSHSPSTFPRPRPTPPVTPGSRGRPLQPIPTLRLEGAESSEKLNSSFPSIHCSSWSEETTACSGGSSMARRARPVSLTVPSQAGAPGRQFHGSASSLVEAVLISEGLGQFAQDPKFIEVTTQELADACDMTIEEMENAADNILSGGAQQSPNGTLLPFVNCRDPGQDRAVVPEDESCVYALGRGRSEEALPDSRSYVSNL
T2 sequence (Q13936 whole entry): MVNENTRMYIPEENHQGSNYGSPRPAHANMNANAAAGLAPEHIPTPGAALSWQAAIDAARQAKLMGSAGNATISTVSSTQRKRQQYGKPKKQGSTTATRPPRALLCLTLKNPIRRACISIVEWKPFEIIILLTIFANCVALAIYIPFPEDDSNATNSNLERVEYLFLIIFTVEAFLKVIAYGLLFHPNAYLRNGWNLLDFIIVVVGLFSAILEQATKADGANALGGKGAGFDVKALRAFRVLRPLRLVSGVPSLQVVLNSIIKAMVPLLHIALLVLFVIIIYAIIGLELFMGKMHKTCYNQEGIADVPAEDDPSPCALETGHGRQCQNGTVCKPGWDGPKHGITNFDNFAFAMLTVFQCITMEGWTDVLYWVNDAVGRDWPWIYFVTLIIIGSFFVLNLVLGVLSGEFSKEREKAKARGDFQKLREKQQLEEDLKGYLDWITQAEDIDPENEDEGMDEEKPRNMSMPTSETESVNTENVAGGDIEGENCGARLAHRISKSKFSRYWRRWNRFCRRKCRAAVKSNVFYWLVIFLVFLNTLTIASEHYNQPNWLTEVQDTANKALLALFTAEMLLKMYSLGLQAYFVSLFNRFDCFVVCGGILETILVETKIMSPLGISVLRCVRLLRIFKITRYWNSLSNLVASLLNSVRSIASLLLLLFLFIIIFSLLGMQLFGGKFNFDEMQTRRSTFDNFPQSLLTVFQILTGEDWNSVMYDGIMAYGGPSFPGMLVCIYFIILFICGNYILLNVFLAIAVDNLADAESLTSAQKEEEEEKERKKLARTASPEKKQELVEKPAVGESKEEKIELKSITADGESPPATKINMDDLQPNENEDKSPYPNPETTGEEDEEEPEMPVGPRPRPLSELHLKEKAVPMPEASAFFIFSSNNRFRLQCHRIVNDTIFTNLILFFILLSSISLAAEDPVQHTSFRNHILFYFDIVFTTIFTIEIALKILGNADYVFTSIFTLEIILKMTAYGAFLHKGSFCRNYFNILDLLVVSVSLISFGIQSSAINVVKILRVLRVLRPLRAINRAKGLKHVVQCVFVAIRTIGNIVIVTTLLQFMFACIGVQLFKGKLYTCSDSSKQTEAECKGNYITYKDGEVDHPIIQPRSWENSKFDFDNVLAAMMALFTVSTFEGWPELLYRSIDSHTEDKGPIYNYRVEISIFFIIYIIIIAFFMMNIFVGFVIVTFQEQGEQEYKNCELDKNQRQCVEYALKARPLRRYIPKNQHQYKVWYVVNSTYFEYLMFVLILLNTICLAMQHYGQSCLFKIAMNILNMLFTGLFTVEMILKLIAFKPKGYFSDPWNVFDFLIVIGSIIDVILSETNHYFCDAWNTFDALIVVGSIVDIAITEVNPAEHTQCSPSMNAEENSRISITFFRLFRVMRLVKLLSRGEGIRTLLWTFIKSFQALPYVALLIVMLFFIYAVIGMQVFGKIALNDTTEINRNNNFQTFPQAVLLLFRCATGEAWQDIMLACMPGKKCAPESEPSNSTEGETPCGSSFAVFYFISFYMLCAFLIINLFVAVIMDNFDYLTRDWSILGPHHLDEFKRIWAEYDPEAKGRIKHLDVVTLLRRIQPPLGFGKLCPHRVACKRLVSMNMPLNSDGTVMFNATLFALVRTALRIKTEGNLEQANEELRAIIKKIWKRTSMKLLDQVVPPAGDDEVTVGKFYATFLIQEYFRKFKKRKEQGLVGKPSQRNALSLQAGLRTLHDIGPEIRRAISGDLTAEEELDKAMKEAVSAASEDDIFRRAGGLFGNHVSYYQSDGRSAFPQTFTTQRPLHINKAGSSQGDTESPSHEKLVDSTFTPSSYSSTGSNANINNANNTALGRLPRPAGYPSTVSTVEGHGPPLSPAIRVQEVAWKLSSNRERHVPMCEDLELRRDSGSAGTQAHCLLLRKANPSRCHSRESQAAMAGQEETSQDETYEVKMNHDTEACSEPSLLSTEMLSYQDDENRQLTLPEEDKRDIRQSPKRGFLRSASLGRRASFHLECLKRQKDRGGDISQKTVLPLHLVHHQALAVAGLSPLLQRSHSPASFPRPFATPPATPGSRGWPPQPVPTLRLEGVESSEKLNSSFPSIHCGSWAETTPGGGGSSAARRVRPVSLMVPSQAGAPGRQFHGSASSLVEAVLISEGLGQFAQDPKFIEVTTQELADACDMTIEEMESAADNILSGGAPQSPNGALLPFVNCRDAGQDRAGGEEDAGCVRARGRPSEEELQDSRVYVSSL

In the case of `CN(C)CCN1C(=O)c2ccccc2N(C)c2ccccc21` [DIBENZEPIN], the IC50 [1] is reported as 364 µM.

With `O=C(O)Cc1ccccc1Nc1c(Cl)cccc1Cl` [DICLOFENAC] the IC50 [2] was 12.9 µM.

Work on `C[C@]12CC[C@@H]3c4ccc(O)cc4CC[C@H]3[C@@H]1CC[C@@H]2O` [ESTRADIOL] yielded an IC50 [3] of 50 µM.

With `COc1ccc(CCN(C)CCCOc2ccc(S(=O)(=O)c3c(C(C)C)cn4ccccc34)cc2)cc1OC` [FANTOFARONE] the IC50 [4] was 0.022 µM and the IC50 [5] was 9 µM.

`CC(NCCC(c1ccccc1)c1ccccc1)c1ccccc1` (configuration not stated) [FENDILINE] gave an IC50 [6] of 17 µM.

For `COc1ccc(CCN(C)CCCC(C#N)(c2cc(OC)c(OC)c(OC)c2)C(C)C)cc1OC` (configuration not stated) [GALLOPAMIL], the IC50 [7] was 0.017 µM.

`O=c1c(-c2ccc(O)cc2)coc2cc(O)cc(O)c12` [GENISTEIN] was tested, and the IC50 [8] was 11 µM and the IC50 [9] was 20 µM.

`FC(F)(F)C(Cl)Br` (configuration not stated) [HALOTHANE] was tested, and the IC50 [10] was 14500 µM and the IC50 [11] was 1800 µM.

In the case of `CC(N)CCCC(C)(C)O` (configuration not stated) [HEPTAMINOL], the IC50 [12] is reported as 15.3 µM.

`C=CCN1CCN(CC(C)(C)COC(=O)C2=C(C)NC(C)=C(C(=O)OC)C2c2cccc([N+](=O)[O-])c2)CC1` (configuration not stated) [IGANIDIPINE] gave an IC50 [13] of 0.009 µM.

With `CC(C)Cn1c(=O)n(C)c(=O)c2[nH]cnc21` [ISOBUTYLMETHYLXANTHINE] the IC50 [14] was 466 µM.

`COCCOC(=O)C1=C(C)NC(C)=C(C(=O)OC(C)C)C1c1cccc([N+](=O)[O-])c1` (configuration not stated) [NIMODIPINE] was tested, and the IC50 [15] was 0.3 µM.

Work on `COC(=O)C1=C(C)NC(C)=C(C(=O)OCC(C)C)C1c1ccccc1[N+](=O)[O-]` (configuration not stated) [NISOLDIPINE] yielded an IC50 [16] of 0.73 µM and an IC50 [17] of 0.08 µM.

In the case of `CCN(CC)CC#CCOC(=O)C(O)(c1ccccc1)C1CCCCC1` (configuration not stated) [OXYBUTYNIN], the IC50 [17] is reported as 16.1 µM.

In the case of `COc1ccc(C(C)=O)c(O)c1` [PAEONOL], the IC50 [18] is reported as 561 µM.

`O=C1NC(=O)C(c2ccccc2)(c2ccccc2)N1` [PHENYTOIN] was tested, and the IC50 [19] was 125 µM.

Compound `CCN(CC)CCCC(C)Nc1c2ccc(Cl)cc2nc2ccc(OC)cc12` (configuration not stated) [QUINACRINE] has an IC50 [20] of 5.2 µM.

Compound `CC[C@H](CO)Nc1nc(NCc2ccccc2)c2ncn(C(C)C)c2n1` [SELICICLIB] has an IC50 [11] of 23.4 µM.

Compound `C[C@]12CC[C@H]3[C@@H](CCC4=CC(=O)CC[C@@]43C)[C@@H]1CC[C@@H]2O` [TESTOSTERONE] has an IC50 [21] of 0.0384 µM and an IC50 [14] of 0.034 µM.

Work on `Cc1ccc(O)c([C@H](CCN(C(C)C)C(C)C)c2ccccc2)c1` [TOLTERODINE] yielded an IC50 [22] of 0.143 µM.

`Cc1c(C)c2c(c(C)c1O)CCC(C)(COc1ccc(CC3SC(=O)NC3=O)cc1)O2` (configuration not stated) [TROGLITAZONE] was tested, and the IC50 [23] was 9.5 µM.

`Fc1ccc(C(OCCN2CCN(CCCc3ccccc3)CC2)c2ccc(F)cc2)cc1` [VANOXERINE] showed an IC50 [24] of 0.32 µM.
